Structures can show the parent of a compound that is named as a salt. Marks after values point to notes of the source that are not given here.
Tests used:
[1] = test system: ddY-type mice; experiment: Analgesic efficacy test (1): acetic acid writhing test; type: in vivo; conditions: Mus musculus, writhing number, mean ± standard error, 8 mice per group, read-out: Suppressive Rate; for inhibition in vivo at 10 mg/kg: oral single dose 10 mg/kg; for inhibition in vivo at 100 mg/kg: oral single dose 100 mg/kg
Description: A compound of the present invention was orally administered to mice, to carry out an analgesic efficacy test according to acetic acid writhing test. As an experimental animal, 4-week old male ddY-type mice were previously bred, and thereafter 8 mice per one group were used in the experiment. A solution or suspension prepared by dissolving or suspending a compound of the present invention in a 0.5% (w/v) aqueous CMC-Na solution was orally administered as a test substance in a single dose. While, to a control group, a 0.5% (w/v) aqueous CMC-Na solution was administered in the same manner After 25 minutes from administration, the mice were intraperitoneally administered with a 0.7% (v/v) acetic acid/physiological saline at the dose of 10 mL/kg. From 5 minutes thereafter, writhing number in a 10-minute period was counted, and a suppressive rate for each individual (mean±standard error) was calculated by the following formula: […]
In the test for significance difference, Bartlett's test was carried out in the comparison between multiple groups of the group administered with test substance with the control group. In the case of homoscedasticity, Dunnett's multiple comparison test of parametrics, and in the case of heteroscedasticity, Dunnett's multiple comparison test of non-parametrics were used. In addition, in the test of dose dependency, Jonckheere-Terpstra's test was used. In all cases, significance difference was considered to be found at P<0.05 (indicated as “*” in the table).

[2] = test system: Chung model rat; experiment: Analgesic efficacy test (2): Chung model rat, neuropathic pain model (allodynia, von Frey filament); type: in vivo, rats; conditions: mean ± standard error
Protocol: An analgesic efficacy test was conducted using a Chung model rat, a neuropathic pain model. Nine-week old Wistar male rats were previously bred as an experimental animal, and a model rat was then prepared in accordance with the method of Kim and Chung (Pain, 50, 355-363, 1992). Specifically, left L5 spinal nerves of rats were exposed under anesthetization with pentobarbital (40 mg/kg, intraperitoneal administration), and firmly ligated with 5-0 silk yarn at L5 dorsal root ganglion peripheral side. The animals were placed in a transparent acrylic cage of which bottom was wire netted The measurement of allodynia was carried out using von Frey filament (manufactured by North Coast Medical Inc.) and a 50% reaction threshold was calculated according to an up-down method, in accordance with a method of Chaplan et al. (J. Neurosci. Method, 53, 55-63, 1994). The 50% reaction thresholds were measured twice before injury of the spinal nerve, and those animals of which thresholds were outside the standard were removed from the operation of spinal nerve injury. On or after 14 days from the spinal nerve injury, a 50% reaction threshold was measured, and those showing thresholds of 1 g or more and less than 4 g were used as experimental animal. The group was constituted by 7 or 8 rats per group so that an average of a 50% reaction threshold for each group would be nearly even.
A solution or suspension prepared by dissolving or suspending a compound of the present invention in a 0.5% (w/v) aqueous CMC-Na solution was orally administered as a test substance in a single dose. Also, a 0.5% (w/v) aqueous CMC-Na solution was administered in the same manner to the control group for nerve injury. The measurements of allodynia were carried out with the passage of time after administration, and a 50% reaction threshold (mean±standard error) of each group at action peak was calculated. In the test for significance difference, Bartlett's test was carried out in the comparison between multiple groups of the group administered with test substance with the control group for nerve injury. In the case of homoscedasticity, Dunnett's multiple comparison test of parametrics, and in the case of heteroscedasticity, Dunnett's multiple comparison test of non-parametrics were used. In all cases, significance difference was considered to be found at P<0.05 (indicated as “*” in the tables).

[3] = oral 1 mg/kg, measurement point 90 minute (action peak)
[4] = oral 10 mg/kg, measurement point 90 minute (action peak)
[5] = oral 1 mg/kg, measurement point 60 minute (action peak)
[6] = oral 10 mg/kg, measurement point 60 minute (action peak)
[7] = oral 1 mg/kg, measurement point 30 minute (action peak)
[8] = oral 10 mg/kg, measurement point 30 minute (action peak)

| melting point | SMILES | 50% Reaction Threshold, Group Administered with Test Substance, After Administration [2, 3] | 50% Reaction Threshold, Group Administered with Test Substance, After Administration [2, 4] | 50% Reaction Threshold, Group Administered with Test Substance, After Administration [2, 5] | 50% Reaction Threshold, Group Administered with Test Substance, After Administration [2, 6] | other results |
| --- | --- | --- | --- | --- | --- | --- |
| – | O=C(/C=C/c1ccccc1F)NCCc1c[nH]c2ccccc12 [Compound 1, (E)-3-(2-Fluorophenyl)-N-[2-(1H-indol-3-yl)ethyl]-2-propenamide] | 6.71 ± 1.33 g | 14.06 ± 0.61* g | – | – | inhibition in vivo at 10 mg/kg [1]: 46.9 ± 7.6%; inhibition in vivo at 100 mg/kg [1]: 62.7 ± 6% |
| 88 to 89 °C | O=C(/C=C/c1ccc(F)cc1)NCCCN1CCOCC1 [Compound 26, (E)-3-(4-Fluorophenyl)-N-(3-morpholinopropyl)-2-propenamide] | – | – | 10.25 ± 1.07* g | 14.33 ± 0.67* g | – |
| 71 to 72 °C | O=C(/C=C/c1cc(F)ccc1F)NCCCN1CCOCC1 [Compound 29, (E)-3-(2,5-Difluorophenyl)-N-(3-morpholinopropyl)-2-propenamide] | – | – | 5.10 ± 0.42 g | 10.51 ± 1.15* g | – |
| – | CN1CCN(CCCNC(=O)/C=C/c2ccccc2F)CC1 [Compound 15, (E)-3-(2-Fluorophenyl)-N-[3-(4-methylpiperazin-1-yl)propyl]-2-propenamide dihydrochloride] | 7.45 ± 1.95* g | 7.43 ± 1.63* g | – | – | inhibition in vivo at 10 mg/kg [1]: 24.3 ± 12.7%; inhibition in vivo at 100 mg/kg [1]: 44.1 ± 6.6% |
| – | Cl.O=C(/C=C/c1ccccc1F)NCCn1ccnc1 [Compound 21, (E)-3-(2-Fluorophenyl)-N-[2-(imidazol-1-yl)ethyl]-2-propenamide hydrochloride] | 11.78 ± 1.20* g | – | – | – | inhibition in vivo at 10 mg/kg [1]: 44.5 ± 11.7%; inhibition in vivo at 100 mg/kg [1]: 49.7 ± 4.7%; 50% Reaction Threshold, Group Administered with Test Substance, After Administration ([2]; oral 0.1 mg/kg, measurement point 90 minute (action peak)): 6.04 ± 0.89 g; 50% Reaction Threshold, Group Administered with Test Substance, After Administration ([2]; oral 0.3 mg/kg, measurement point 90 minute (action peak)): 8.80 ± 1.42* g |
| 223 to 224 °C | O=C(/C=C/c1ccc(F)cc1)Nc1ccc(N2CCOCC2)cc1 [Compound 33, (E)-3-(4-Fluorophenyl)-N-[4-morpholinophenyl]-2-propenamide] | – | – | 8.93 ± 1.46* g | 9.35 ± 2.10* g | – |
| 80 to 81 °C | O=C(/C=C/c1cccc(F)c1)NCCCN1CCOCC1 [Compound 25, (E)-3-(3-Fluorophenyl)-N-(3-morpholinopropyl)-2-propenamide] | – | – | 8.17 ± 1.09* g | 9.68 ± 1.20* g | – |
| 154 to 156 °C | Cl.N=C(N)NCCCCNC(=O)/C=C/c1ccccc1F [Compound 65, (E)-3-(2-Fluorophenyl)-N-(4-guanidinobutyl)-2-propenamide hydrochloride] | – | – | 5.01 ± 0.52* g | 5.24 ± 0.47* g | – |
| 247 to 248 °C | Cl.O=C(/C=C/c1ccc(F)cc1)NCCCN1CCS(=O)(=O)CC1 [Compound 63, (E)-N-[3-(1,1-Dioxo-1,4-thiazinan-4-yl)propyl]-3-(4-fluorophenyl)-2-propenamide hydrochloride] | 3.60 ± 0.35 g | 6.74 ± 0.62* g | – | – | – |
| 127 to 129 °C | Cc1nccn1CCNC(=O)/C=C/c1ccccc1F [Compound 42, (E)-3-(2-Fluorophenyl)-N-[2-(2-methylimidazol-1-yl)ethyl]-2-propenamide] | – | – | – | – | 50% Reaction Threshold, Group Administered with Test Substance, After Administration [2, 7]: 2.60 ± 0.32 g; 50% Reaction Threshold, Group Administered with Test Substance, After Administration [2, 8]: 4.24 ± 0.35* g |
| 154 to 155 °C | O=C(/C=C/c1ccccc1F)NCc1cccc(N2CCSCC2)c1 [Compound 69, (E)-3-(2-Fluorophenyl)-N-[(3-thiomorpholinophenyl)methyl]-2-propenamide] | – | – | 3.68 ± 0.40* g | 4.35 ± 0.51* g | – |
| 113 to 115 °C | O=C(/C=C/c1ccc(F)cc1F)NCCn1ccnc1 [Compound 23, (E)-3-(2,4-Difluorophenyl)-N-[2-(imidazol-1-yl)ethyl]-2-propenamide] | 8.22 ± 1.43* g | 9.81 ± 1.27* g | – | – | – |
| 121 to 122 °C | O=C(/C=C/c1ccc(F)cc1)NCCCN1CCSCC1 [Compound 60, (E)-3-(4-Fluorophenyl)-N-(3-thiomorpholinopropyl)-2-propenamide] | – | – | – | – | 50% Reaction Threshold, Group Administered with Test Substance, After Administration [2, 7]: 4.03 ± 0.54 g; 50% Reaction Threshold, Group Administered with Test Substance, After Administration [2, 8]: 8.45 ± 1.01* g |
| 94 to 95 °C | O=C(/C=C/c1ccc(F)cc1F)NCCCN1CCOCC1 [Compound 28, (E)-3-(2,4-Difluorophenyl)-N-(3-morpholinopropyl)-2-propenamide] | – | – | 8.44 ± 1.81* g | 12.05 ± 1.44* g | – |
| 124 to 126 °C | O=C(/C=C/c1ccccc1F)NCCn1cccn1 [Compound 38, (E)-3-(2-Fluorophenyl)-N-[2-(pyrazol-1-yl)ethyl]-2-propenamide] | 2.74 ± 0.23 g | 4.06 ± 0.52* g | – | – | – |
| – | O=C(/C=C/c1ccccc1F)NCCN1CCNCC1 [Compound 16, (E)-3-(2-Fluorophenyl)-N-[2-(piperazin-1-yl)ethyl]-2-propenamide dihydrochloride] | 5.48 ± 0.82 g | 7.48 ± 1.30 g | – | – | inhibition in vivo at 10 mg/kg [1]: 42.6 ± 9.1%; inhibition in vivo at 100 mg/kg [1]: 65.5 ± 8.9% |
| 130 to 131 °C | O=C(/C=C/c1ccc(F)cc1)NCCCN1CC[S+]([O-])CC1 [Compound 67, (E)-3-(4-Fluorophenyl)-N-[3-(1-oxo-1,4-thiazinan-4-yl)propyl]-2-propenamide] | – | – | 10.63 ± 1.23* g | 10.71 ± 2.13* g | – |
| 252 to 253 °C | Cl.O=C(/C=C/c1ccccc1F)NCCCN1CCS(=O)(=O)CC1 [Compound 62, (E)-N-[3-(1,1-Dioxo-1,4-thiazinan-4-yl)propyl]-3-(2-fluorophenyl)-2-propenamide hydrochloride] | 6.17 ± 1.33 g | 9.22 ± 1.28* g | – | – | – |
| 178 to 179 °C | Cl.O=C(/C=C/c1ccccc1F)NCCCN1CCSCC1 [Compound 61, (E)-3-(2-Fluorophenyl)-N-(3-thiomorpholinopropyl)-2-propenamide hydrochloride] | – | – | 10.64 ± 1.38* g | 11.81 ± 1.47* g | – |

From patent publication US9540338B2, “Substituted cinnamic acid amides for treating pain” (NIPPON ZOKI PHARMACEUTICAL CO., LTD., priority 2012, dated 2017)
